Reference: PMC3689833, “Neurochemical Changes in the Mouse Hippocampus Underlying the Antidepressant Effect of Genetic Deletion of P2X7 Receptors” (PLoS ONE, 2013)

Key:
[1] = tested on: BDNF level in hippocampal slices; test: BDNF protein assay (ELISA), in vitro study in hippocampal slices; format: cell-based, mouse; conditions: for effect on the inhibitory effect of BzATP on BDNF level / effect on basal BDNF level, compound alone (no BzATP): CNQX 10 µM, TCN-201 10 µM; for effect on the inhibitory effect of BzATP on BDNF level / effect on basal BDNF level, compound alone (no BzATP) / BDNF level in hippocampal slices in the presence of BzATP: RO-256981 3 µM, MCPG 200 µM; for BDNF level in hippocampal slices in the presence of BzATP: + BzATP 100 µM, BBG 100 nM, DHPG 100 µM; for BDNF level in hippocampal slices, compound alone: RO-256981 3 µM 15 min, DHPG 100 µM 10 min
Description: The P2rx7 wild type and knockout mice were anesthetized under light CO2 inhalation and decapitated. The hippocampus was dissected in ice-cold Krebs solution saturated with 95% O2 and 5% CO2, sectioned (400 µm thick slices) using a McIlwain tissue chopper and incubated in 2 ml of modified Krebs solution in the presence of 1 ml Hibernate medium, ascorbic acid (300 µM) and Na2EDTA (30 µM) for 60 min. The medium was bubbled continuously with 95% O2 and 5% CO2 and maintained at 37°C. The P2rx7 agonist, BzATP, was added to the incubation solution for 30 min, whereas BBG was applied 15 min before BzATP application. RO-256981, 6-cyano-7-nitroquinoxaline-2,3-dione (CNQX) and 3-Chloro-4-fluoro-N-[4[[2(phenylcarbonyl)hydrazino]carbonyl]benzyl] benzenesulfonamide (TCN-201) were applied for 15 min, while MCPG was administered for 30 min. The group I metabotropic glutamate receptor agonist, dihydroxyphenylglycine (DHPG), was administered for 10 min. The DHPG, MCPG, and RO-256981 dosages were chosen based on previous studies, [47], [48]. In the experiments with BzATP, Mg^2+ was omitted from the incubation solution. The hippocampal slices were collected, frozen on dry ice and stored at −70°C until further investigation. Each experimental group contained 3–4 mice.
At the time of analysis, the samples were removed from the freezer and weighed. The BDNF extraction procedure was performed in accordance with the methods of a previous study. For the BDNF assays, 2 ml lysis buffer (100 mM PIPES, pH 7, 500 mM NaCl, 0.2% Triton X-100, 0.1% NaN3, 2% BSA, 2 mM EDTA, 200 µM PMSF, 10 µg/mL aprotinin, 1 µg/mL leupeptin, and 0.5 mM sodium vanadate) was added to each sample, and the hippocampus was sonicated at power level 2 using pulses at 1 sec intervals for 10–15 sec. Subsequently, the samples were centrifuged at 16,000 × g for 30 min at 4°C. 100 µl aliquots of the resulting supernatants were removed and diluted with 400 µl of DPBS buffer (137 mM NaCl, 2.68 mM KCl, 1.47 mM KH2PO4, 8.1 mM Na2HPO4 (pH 7.35), 0.9 mM CaCl2·H2O, and 0.5 mM MgCl2·H2O). The supernatants were collected and stored at −70?C until further analysis. For the total free BDNF measurement, the samples were acid treated with 1 µl of 1 N HCl for each 50 µl of diluted samples to decrease the pH to 2.5, followed by incubation at room temperature for 15 min. The samples were neutralized with 1 µl of 1 N NaOH for each 50 µl of diluted samples. The levels of BDNF (both precursor and mature forms) expression were evaluated using an enzyme-linked immunosorbent assay (ELISA) kit and a BDNF Emax ImmunoAssay System (Promega Corporation, Madison, WI, USA), which is specific for mouse BDNF protein, according to the manufacturer’s instructions. The BDNF levels were calculated by plotting the optical density (OD) of each sample against the standard curve. A seven-point standard curve using two-fold serial dilutions in Reagent Diluent (according the manufacturer’s instructions) and a high standard of 500 pg/ml were used for the determination of BDNF levels. The assay detection limits were <15 pg/ml. Absorbance was measured at 450 nm using a Perkin-Elmer Victor 3V 1420 Multilabel Counter.

[2] = tested on: P2rx7+/+ and P2rx7−/− mice; test: Sucrose preference test (SPT), LPS-induced anhedonia; format: in vivo, mouse; conditions: for inhibitory effect on LPS-induced anhedonia in P2rx7−/− mice: acute treatment; for effect on LPS-induced anhedonia in P2rx7−/− mice: subacute 4-day treatment, compared with P2rx7+/+
Description: The experiments were performed using the two-bottle sucrose preference paradigm. The decreased preference for sucrose vs. water in this test has been proposed to reflect impaired sensitivity towards reward and to model anhedonia. Mice were offered a choice of 2% sucrose solution or water during 12-hour nocturnal periods (starting at 19∶00). The bottles were weighed before and after each test session to monitor sucrose and water consumption. The relative position of the sucrose and water bottles were swapped every night to avoid place preferences. The baseline sucrose intake was measured under a habituation period of 3–4 days before administering the treatments, and the mean volume ingested over the last 3 training sessions was used as a baseline value. The sucrose consumption was measured for 4 consecutive nights after LPS (0.2 mg/kg i.p.) or saline administration and expressed as g/100 g body weight or as a percentage of the baseline (%).

acute hippocampal slices = test: [3H]Glutamate and endogenous glutamate release from acute hippocampal slices; format: cell-based, mouse
Description: The [^3H]Glu release experiments were conducted using the method described in our previous papers. Briefly, the mice were anaesthetized under light CO2 inhalation, and subsequently decapitated. The hippocampus was dissected from each mouse in ice-cold Krebs solution saturated with 95% O2 and 5% CO2, sectioned (400-µm-thick slices) using a McIlwain tissue chopper and incubated in 1 ml of modified Krebs solution (113 mM NaCl, 4.7 mM KCl, 2.5 mM CaCl2, 1.2 mM KH2PO4, 1.2 mM MgSO4, 25.0 mM NaHCO3, and 11.5 mM glucose), pH 7.4, in the presence of 5 µCi/ml [^3H]glutamic acid ([^3H]Glu, 9.8×10^−8 M, specific activity 51 Ci/mmol; Perkin Elmer) for 45 min. The medium was bubbled with 95% O2 and 5% CO2 and maintained at 32°C. After loading, the slices were continuously superfused with 95% O2 and 5% CO2-saturated modified Krebs solution (flow rate: 0.7 ml/min).
Subsequently, the perfused samples were collected over a 3-min period and measured for tritium content. At 6 min after the start of the collection, the slices were subjected to a 6-min perfusion of the agonist (ATP) at various concentrations (1, 3, 6 and 10 mM) and then changed to normal Krebs solution until the end of the collection period. In some experiments, the P2X1 receptor antagonist, NF449 (100 nM), or the selective P2rx7 antagonist Brilliant blue G (100 nM) was applied to the perfusion solution at 15 min before the beginning of the ATP perfusion.
The radioactivity released from the preparations was measured using a Packard 1900 Tricarb liquid scintillation spectrometer, using Ultima Gold Scintillation cocktail. The release of tritium was expressed as a percentage of the amount of radioactivity in the tissue at the sample collection time (fractional release). The tritium uptake in the tissue was determined as the sum of release+the tissue content after the experiment and expressed in Bq/g. For the evaluation of the basal tritium outflow the fractional release measured in four consecutive 3 min samples under drug free conditions were taken into account. The ATP-induced [^3H]Glu efflux calculated as the net release in response to the respective stimulus by subtracting the release before the stimulation from the values measured after stimulation. Selected samples collected under resting conditions and during the peak of the ATP-evoked response were subjected to further HPLC analyses.
The separation of pre-column dansylated amino acids was performed using a gradient elution-working mode at ambient temperature. The mobile phase A consisted of 5/95 (v/v) 78/22 acetonitrile/methanol in 15 mM ammonium formate buffer, and the mobile phase B was composed of 90/10 (v/v 78/22) acetonitrile/methanol in ammonium formate buffer, pH 3.7. The mobile phase B increased linearly (at 0.11 min to 50% 17 min to 72% and 26 min to 100%, followed by a final run to 54 min), the flow rate was 0.7 ml/min. The analytical and the trap column were equilibrated for 10 min, and enrichment and clean-up procedures were performed. The dansylated derivatives were detected using an absorbance detector (Agilent 1100) at a 319 nm wavelength. The retention time of the dansylated Glu was 11.4 min. Pre-column derivatization was performed by mixing 50 µl of dansyl chloride prepared by dissolving 5 mg 5-(dimethylamino)naphthalene-1-sulfonyl chloride in acetonitrile daily and adding 50 µl of 2 M sodium carbonate, which contained norvaline (20 µM) as an internal standard in 25 µl of sample. After a 10-min reaction time at 60°C, the mixture was acidified using 25 µl of 6 M formic acid and injected onto the “trap-column”.

[3] = P2rx7+/+ slices, BzATP 100 µM 30 min, Mg2+-free

Structure (SMILES): N#Cc1cc2[nH]c(=O)c(=O)[nH]c2cc1[N+](=O)[O-] [CNQX, 6-cyano-7-nitroquinoxaline-2,3-dione]
- effect on the inhibitory effect of BzATP on BDNF level ([1]; P2rx7+/+ slices, BzATP 100 µM): occluded
- effect on basal BDNF level, compound alone (no BzATP) ([1]; P2rx7+/+ slices): decreased

Structure (SMILES): O=C(CC12CC3CC(CC(C3)C1)C2)Nc1cccc2nc(NCCNCCO)ccc12 [AZ-10606120]
- amount of sucrose consumed on the 3rd day after LPS injection ([2]; P2rx7+/+ mice, acute injection 2 mg/kg i.p. 30 min before LPS, vs control): significantly higher
- amount of sucrose consumed on the day after LPS injection ([2]; P2rx7+/+ mice, subacute treatment 2 mg/kg i.p., vs control): significantly higher
- inhibitory effect on LPS-induced anhedonia in P2rx7−/− mice [2]: completely absent
- effect on LPS-induced anhedonia in P2rx7−/− mice [2]: significantly attenuated

Structure (SMILES): O=C(Nc1cc(C(=O)Nc2ccc(S(=O)(=O)[O-])cc2S(=O)(=O)[O-])cc(C(=O)Nc2ccc(S(=O)(=O)[O-])cc2S(=O)(=O)[O-])c1)Nc1cc(C(=O)Nc2ccc(S(=O)(=O)[O-])cc2S(=O)(=O)[O-])cc(C(=O)Nc2ccc(S(=O)(=O)[O-])cc2S(=O)(=O)[O-])c1.[Na+].[Na+].[Na+].[Na+].[Na+].[Na+].[Na+].[Na+] [NF449, 4,4′,4′′,4′′′-[Carbonylbis(imino-5,1,3-benzenetriyl-bis(carbonylimino))]tetrakis-1,3-benzenedisulfonic acid, octasodium salt]
- residual ATP-evoked [3H]Glu efflux in presence of antagonist (acute hippocampal slices; P2rx7−/− slices, ATP 10 mM, antagonist 100 nM 15 min before ATP): sensitive to inhibition

Structure (SMILES): C[C@@H](CN1CCC(Cc2ccccc2)CC1)[C@@H](O)c1ccc(O)cc1.O=C(O)/C=C\C(=O)O [RO-256981, (αR,βS)-α-(4-Hydroxyphenyl)-β-methyl-4-(phenylmethyl)-1-piperidinepropanol maleate]
- BDNF level in hippocampal slices in the presence of BzATP ([1]; P2rx7+/+ slices, Mg2+-free): 15.75 ± 0.44 pg/mL
- effect on the inhibitory effect of BzATP on BDNF level ([1]; P2rx7+/+ slices, BzATP 100 µM): occluded
- effect on basal BDNF level, compound alone (no BzATP) ([1]; P2rx7+/+ slices): decreased
- BDNF level in hippocampal slices, compound alone ([1]; P2rx7+/+ slices): 15.20 ± 0.12 pg/mL

Structure (SMILES): CC(N)(C(=O)O)c1ccc(C(=O)O)cc1 (stereo not drawn) [MCPG, α-Methyl-4-carboxyphenylglycine]
- BDNF level in hippocampal slices in the presence of BzATP ([1]; P2rx7+/+ slices, Mg2+-free): 6.09 ± 1.17 pg/mL
- decrease of BDNF level in the presence of BzATP ([1]; P2rx7+/+ slices, BzATP 100 µM + MCPG 200 µM): 67.34%
- effect on the inhibitory effect of BzATP on BDNF level ([1]; P2rx7+/+ slices, BzATP 100 µM): did not antagonize
- effect on basal BDNF level, compound alone (no BzATP) ([1]; P2rx7+/+ slices): significantly diminished

Structure (SMILES): Nc1ncnc2c1ncn2[C@@H]1O[C@H](COP(=O)(O)OP(=O)(O)OP(=O)(O)O)[C@@H](OC(=O)c2ccc(C(=O)c3ccccc3)cc2)[C@H]1O [BzATP, 3′-O-(4-benzoyl-benzoyl)adenosine 5′-triphosphate]
- BDNF level in hippocampal slices [1, 3]: 13.85 ± 0.98 pg/mL
- decrease of basal BDNF level [1, 3]: 25.73%
- effect on BDNF level ([1]; P2rx7−/− slices, BzATP 100 µM, Mg2+-free): without significantly affecting

Structure (SMILES): O=C(NNC(=O)c1ccc(CNS(=O)(=O)c2ccc(F)c(Cl)c2)cc1)c1ccccc1 [TCN-201, 3-Chloro-4-fluoro-N-[4[[2(phenylcarbonyl)hydrazino]carbonyl]benzyl] benzenesulfonamide]
- effect on the inhibitory effect of BzATP on BDNF level ([1]; P2rx7+/+ slices, BzATP 100 µM): occluded
- effect on basal BDNF level, compound alone (no BzATP) ([1]; P2rx7+/+ slices): unaffected

Structure (SMILES): CN(C)CCCC1(c2ccc(F)cc2)OCc2cc(C#N)ccc21 (stereo not shown) [citalopram]
- inhibitory effect on LPS-induced anhedonia in P2rx7−/− mice [2]: largely preserved
- effect on LPS-induced anhedonia in P2rx7−/− mice [2]: largely preserved

Structure (SMILES): NC(C(=O)O)c1cc(O)cc(O)c1 (stereo not shown) [DHPG, 3,5-dihydroxyphenylglycine]
- BDNF level in hippocampal slices in the presence of BzATP ([1]; P2rx7+/+ slices, Mg2+-free): 54.14 ± 1.92 pg/mL
- BDNF level in hippocampal slices, compound alone ([1]; P2rx7+/+ slices): 41.59 ± 0.40 pg/mL

Structure (SMILES): Nc1ncnc2c1ncn2[C@@H]1O[C@H](COP(=O)(O)OP(=O)(O)OP(=O)(O)O)[C@@H](O)[C@H]1O [ATP]
- net release of tritium ([3H]Glu, fractional release) (acute hippocampal slices; P2rx7+/+ slices, 10 mM ATP, 6-min perfusion): 3.34±0.57%
- endogenous glutamate level in effluent (HPLC) (acute hippocampal slices; P2rx7+/+ slices, 10 mM ATP, peak vs resting): remarkable elevation
- efflux of [3H]Glu (acute hippocampal slices; P2rx7+/+ slices, 6-min perfusion, 1–10 mM): concentration-dependent increase
- net [3H]Glu efflux (fractional release) (acute hippocampal slices; P2rx7−/− slices, 10 mM ATP): 0.25±0.43%
